Experimental data: PubChem BioAssay (NCI)
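GI50 marks 50% less growth. TGI: total growth inhibition.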

Tests used:
Experiment in all cases: growth of human tumour cells (NCI), 384-well format
[1] = test system: BT-549 breast
[2] = test system: HCT-116 colon
[3] = test system: HL-60(TB) leukemia
[4] = test system: HOP-62 NSCLC
[5] = test system: HS 578T breast
[6] = test system: NCI-H226 lung
[7] = test system: PC-3 prostate
[8] = test system: RPMI-8226 leukemia
[9] = test system: SK-OV-3 ovarian
[10] = test system: SNB-75 CNS
[11] = test system: T-47D breast
[12] = test system: UACC-257 melanoma
[13] = test system: UO-31 renal

Compound | GI50 [1] | TGI [1] | GI50 [2] | TGI [2] | GI50 [3] | TGI [3] | GI50 [4] | TGI [4] | GI50 [5] | TGI [5] | GI50 [6] | TGI [6] | GI50 [7] | TGI [7] | GI50 [8] | TGI [8] | GI50 [9] | TGI [9] | GI50 [10] | TGI [10] | other results
CS(=O)(=O)N1CCN(Cc2cc3nc(-c4cccc5[nH]ncc45)nc(N4CCOCC4)c3s2)CC1 | 202 nM | 2030 nM | 1930 nM | > 100000 nM | 46.3 nM | 593 nM | 3110 nM | > 100000 nM | 295 nM | 2150 nM | 648 nM | 4900 nM | 165 nM | 7730 nM | 393 nM | 1670 nM | 169 nM | 1620 nM | 102 nM | 533 nM | GI50 [11]: 49.4 nM; TGI [11]: 341 nM; GI50 [12]: 2330 nM; TGI [12]: > 100000 nM; GI50 [13]: 478 nM; TGI [13]: 9800 nM
O=C(CCCCCCC(=O)N/N=C/c1ccc(N(c2ccccc2)c2ccccc2)cc1)NO | 2420 nM | 4880 nM | 702 nM | 1890 nM | 1280 nM | 2560 nM | 2040 nM | 5860 nM | 2110 nM | 4370 nM | 187 nM | 365 nM | 1770 nM | 4330 nM | 260 nM | 574 nM | 1370 nM | 2830 nM | 2820 nM | 7800 nM | GI50 [11]: 562 nM; TGI [11]: 1600 nM; GI50 [12]: 589 nM; TGI [12]: 1310 nM; GI50 [13]: 1730 nM; TGI [13]: 8200 nM
